Some test systems named below: A549; CCRF-CEM; DU-145; EKVX; HCT-116; HCT-15; HL-60; HT-29; IGROV-1; K562; MDA-MB-231; Malme-3M; NCI/ADR-RES; PC-3; SF-295; SK-MEL-2; SNB-19; SNB-75; U-251; RPMI-8226.
Assay in all cases: NCI-60 cell line screen, 48 h

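96-well plates; 48 h exposure; 5 concentrations. Endpoints by linear interpolation between flanking doses. Not reached: highest tested concentration assigned. At the GI50, growth is halved.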 Calls of active or inactive are those of the source. Rule as the data show it: active = GI50 up to about 1.1 µM and inactive = higher.

In the case of `O=C1CS(=O)(=O)C(c2cccc(Oc3ccccc3)c2)N1c1cccc(Cl)c1` (centres undefined), the GI50 with A549 was 37.3 µM (inactive); in the assay on CCRF-CEM, 26.1 µM (inactive); in the assay on DU-145, 66.8 µM (inactive); with EKVX, 17.6 µM (inactive); in the assay on HCT-116, 13.8 µM (inactive); in the assay with HCT-15 it was 22.1 µM. For the same molecule, the GI50 with HL-60 is 30 µM (inactive); with HT-29, 28.6 µM (inactive); in the assay on IGROV-1, 19.1 µM (inactive); in the assay with K562, 13.1 µM (inactive); with MDA-MB-231, 29.1 µM (inactive); in the assay with Malme-3M, 20 µM (inactive). For the same molecule, the GI50 was 29.8 µM (inactive) with NCI/ADR-RES; 20.6 µM (inactive) with PC-3; 33.4 µM (inactive) with SF-295; 16.3 µM (inactive) in the assay with SK-MEL-2; 43.4 µM (inactive) in the assay with SNB-19; 36.3 µM (inactive) in the assay on SNB-75. For the same molecule, the GI50 in the assay on U-251 was 21.2 µM (inactive).
With `CCC1=NC(N/N=C/c2ccco2)=N/C1=C\c1ccccc1O`, the GI50 in the assay with A549 is 41.1 µM (inactive); in the assay on CCRF-CEM, 12.7 µM (inactive); with DU-145 it was 55.6 µM (inactive); in the assay on EKVX, 26.7 µM (inactive); in the assay with HCT-116 it was 23.7 µM (inactive); with HCT-15 it was 12.6 µM. Also, the GI50 is 27.4 µM (inactive) in the assay with HL-60; 36 µM (inactive) in the assay on HT-29; 26.4 µM (inactive) with IGROV-1; 56.5 µM (inactive) with K562; > 100 µM (inactive) in the assay on MDA-MB-231; 31 µM (inactive) with Malme-3M. Further, the GI50 in the assay on NCI/ADR-RES is 24.5 µM (inactive); in the assay on PC-3 it was 31.2 µM (inactive); with RPMI-8226, 31.9 µM (inactive); with SF-295, 44.2 µM (inactive); with SK-MEL-2 it was 25.9 µM (inactive); with SNB-19, 47.9 µM (inactive). In addition, in the assay on U-251, the GI50 was 56.4 µM (inactive).
Regarding `C[C@H](NC1=C(Cl)C(=O)c2c(O)ccc(O)c2C1=O)C(=O)Nc1ccc([N+](=O)[O-])cc1`, the GI50 with A549 was 1.71 µM (inactive); in the assay on CCRF-CEM it was 0.305 µM (active); with DU-145, 1.82 µM (inactive); with EKVX, 4.93 µM (inactive); with HCT-116, 1.41 µM (inactive); in the assay on HCT-15 it was 1.93 µM. For the same molecule, the GI50 in the assay with HT-29 was 2.62 µM (inactive); with IGROV-1, 2.5 µM (inactive); in the assay with K562, 10 µM (inactive); with MDA-MB-231, 1.91 µM (inactive); with Malme-3M, 1.19 µM (inactive); with NCI/ADR-RES it was 1.81 µM (inactive). The GI50 in the assay on PC-3 is 3.41 µM (inactive); in the assay on RPMI-8226 it was 1.84 µM (inactive); with SF-295 it was 1.89 µM (inactive); with SK-MEL-2 it was 3.52 µM (inactive); in the assay with SNB-19, 3.06 µM (inactive); with SNB-75, 4.04 µM (inactive). Further, the GI50 with U-251 was 2.58 µM (inactive).
Turning to `CCN1C(=O)C(=C/C=C/c2ccc([N+](=O)[O-])cc2)C(=O)N(CC)C1=S`, the GI50 with A549 was > 100 µM (inactive); in the assay on CCRF-CEM it was 31.8 µM (inactive); with DU-145 it was 17.6 µM (inactive); in the assay with EKVX it was 21 µM (inactive); in the assay on HCT-116, 17.6 µM (inactive); in the assay with HCT-15, 29.5 µM. In addition, the GI50 in the assay on HL-60 was 82.6 µM (inactive); in the assay with HT-29, 19.7 µM (inactive); in the assay with IGROV-1, 15.1 µM (inactive); in the assay on K562, 20.1 µM (inactive); with MDA-MB-231, 21.3 µM (inactive); with NCI/ADR-RES, 19.5 µM (inactive). Also, the GI50 with PC-3 is 19.3 µM (inactive); in the assay on RPMI-8226, 30.8 µM (inactive); in the assay with SF-295 it was > 100 µM (inactive); in the assay with SK-MEL-2, 23.8 µM (inactive); with SNB-19 it was 37.9 µM (inactive); in the assay on U-251, 18.5 µM (inactive).
In the case of `CCOC(=O)c1cn(CC)c2cc3c(cc2c1=O)CCS3(=O)=O`, the GI50 with A549 was > 100 µM (inactive); with CCRF-CEM, > 100 µM (inactive); in the assay on DU-145, > 100 µM (inactive); in the assay on EKVX, > 100 µM (inactive); in the assay with HCT-116, > 100 µM (inactive); in the assay on HCT-15 it was above 100 µM. Moreover, the GI50 in the assay with HL-60, in the assay on HT-29, in the assay with IGROV-1, in the assay on K562, with MDA-MB-231 and with Malme-3M was > 100 µM (inactive) each time. Besides, the GI50 with NCI/ADR-RES is > 100 µM (inactive); with PC-3, > 100 µM (inactive); in the assay with SF-295, > 100 µM (inactive); in the assay with SK-MEL-2, 19.1 µM (inactive); in the assay on SNB-19 it was > 100 µM (inactive); with U-251, > 100 µM (inactive).
In the case of `CCCN1C(=O)CC(C)N(Cc2ccccc2Cl)C1=S` (centres undefined), the GI50 with A549 was 35.3 µM (inactive); in the assay on CCRF-CEM it was 44.5 µM (inactive); in the assay on DU-145, 26.4 µM (inactive); in the assay on EKVX it was 27.9 µM (inactive); in the assay with HCT-116 it was 24.7 µM (inactive); with HCT-15, 35.2 µM. Also, the GI50 was 37.4 µM (inactive) in the assay with HL-60; 37.9 µM (inactive) with HT-29; 33.4 µM (inactive) in the assay with IGROV-1; 28.7 µM (inactive) in the assay on MDA-MB-231; 25.4 µM (inactive) in the assay on Malme-3M; 21.2 µM (inactive) with NCI/ADR-RES. Moreover, the GI50 was 22.8 µM (inactive) with PC-3; 24.8 µM (inactive) in the assay on RPMI-8226; 31.9 µM (inactive) with SF-295; 21.7 µM (inactive) in the assay with SK-MEL-2; 46.1 µM (inactive) in the assay on SNB-19; 24 µM (inactive) in the assay with U-251.
Turning to `CN(C)CCOc1ccc([N+](=O)[O-])c2cccnc12`, the GI50 in the assay with A549 was > 100 µM (inactive); in the assay on CCRF-CEM, > 100 µM (inactive); in the assay on DU-145, > 100 µM (inactive); with HCT-116 it was 35.6 µM (inactive); with HCT-15, above 100 µM; in the assay on HL-60, > 100 µM (inactive). The GI50 in the assay with HT-29 was 39.4 µM (inactive); in the assay with IGROV-1, > 100 µM (inactive); with K562 it was 97.3 µM (inactive); in the assay on MDA-MB-231, 30.2 µM (inactive); with Malme-3M, > 100 µM (inactive); with NCI/ADR-RES it was > 100 µM (inactive). Moreover, the GI50 in the assay on PC-3 is > 100 µM (inactive); with SF-295, > 100 µM (inactive); with SK-MEL-2, > 100 µM (inactive); in the assay with SNB-19 it was > 100 µM (inactive); with SNB-75, 40.8 µM (inactive); in the assay with U-251, > 100 µM (inactive).
Consider `CC1(C)CC(=O)c2c([nH]c(=S)c(C#N)c2-c2ccc(Br)cc2)C1`, for which the GI50 with A549 is 56.2 µM (inactive); in the assay with CCRF-CEM, 5.85 µM (inactive); in the assay with DU-145 it was 61 µM (inactive); in the assay on EKVX, > 100 µM (inactive); in the assay on HCT-116, 58.2 µM (inactive); in the assay with HCT-15 it was 45.8 µM. Moreover, the GI50 in the assay with HL-60 was 43.9 µM (inactive); in the assay with HT-29, 40.3 µM (inactive); with IGROV-1, 62.5 µM (inactive); in the assay with K562, 43.4 µM (inactive); in the assay with MDA-MB-231 it was 92.5 µM (inactive); with Malme-3M it was 60.7 µM (inactive). Moreover, the GI50 in the assay on NCI/ADR-RES was > 100 µM (inactive); in the assay on PC-3, 30.4 µM (inactive); in the assay on SF-295, 35.7 µM (inactive); with SK-MEL-2, 24.9 µM (inactive); in the assay with SNB-19 it was 45.5 µM (inactive); in the assay with SNB-75, > 100 µM (inactive). Also, in the assay with U-251, the GI50 was 35.6 µM (inactive).
As for `[O-][S+](c1ccccc1)c1ccc(/N=N/O)nc1` (centres undefined), the GI50 in the assay on A549 was > 100 µM (inactive); with CCRF-CEM, > 100 µM (inactive); in the assay with DU-145, > 100 µM (inactive); in the assay with EKVX, > 100 µM (inactive); with HCT-116, > 100 µM (inactive); in the assay with HCT-15 it was above 100 µM. Also, the GI50 was > 100 µM (inactive) in the assay on HL-60; > 100 µM (inactive) in the assay on HT-29; > 100 µM (inactive) with IGROV-1; > 100 µM (inactive) with K562; > 100 µM (inactive) with MDA-MB-231; 0.492 µM (active) in the assay with Malme-3M. For the same molecule, the GI50 is > 100 µM (inactive) in the assay with NCI/ADR-RES; 78.5 µM (inactive) with PC-3; > 100 µM (inactive) in the assay on SF-295; > 100 µM (inactive) with SNB-19; > 100 µM (inactive) in the assay with SNB-75; > 100 µM (inactive) in the assay with U-251.
Consider `c1ccc([B-]2(c3ccccc3)NCCCO2)cc1`, for which the GI50 with A549 was 58.6 µM (inactive); with CCRF-CEM it was 34.5 µM (inactive); in the assay on DU-145, 72.3 µM (inactive); in the assay on EKVX, 97.5 µM (inactive); in the assay on HCT-116, 35.8 µM (inactive); in the assay on HCT-15, 31.8 µM. Moreover, the GI50 was > 100 µM (inactive) in the assay on HL-60; > 100 µM (inactive) with HT-29; 55 µM (inactive) with IGROV-1; 97.7 µM (inactive) in the assay on K562; 42.5 µM (inactive) with MDA-MB-231; 48.9 µM (inactive) in the assay with Malme-3M. Besides, the GI50 in the assay with NCI/ADR-RES was 64.1 µM (inactive); with PC-3, 20.9 µM (inactive); with RPMI-8226 it was 37.2 µM (inactive); with SF-295, 51.3 µM (inactive); with SK-MEL-2 it was 89.9 µM (inactive); in the assay on SNB-19, > 100 µM (inactive). Further, the GI50 in the assay on U-251 is > 100 µM (inactive).
Consider `Cc1cc2c(nn1)-c1ccccc1C2=O`, for which the GI50 with A549 was > 10 µM (inactive); in the assay with CCRF-CEM, > 10 µM (inactive); with DU-145, > 10 µM (inactive); in the assay with EKVX, > 10 µM (inactive); in the assay with HCT-116, > 10 µM (inactive); with HCT-15, above 10 µM. For the same molecule, the GI50 in the assay with HL-60, in the assay with HT-29, in the assay on IGROV-1, in the assay with K562, in the assay with MDA-MB-231 and in the assay on Malme-3M was > 10 µM (inactive) throughout. Moreover, the GI50 in the assay on NCI/ADR-RES, in the assay on PC-3, in the assay on RPMI-8226, in the assay on SF-295, in the assay on SK-MEL-2 and in the assay with SNB-19 was > 10 µM (inactive) in each case. The GI50 with U-251 is > 10 µM (inactive).
